Legend:
[1] = biological target: AMP-activated protein kinase, AMPK (Homo sapiens) (UniProt P54646+O43741+P54619+Q9UGJ0+Q9Y478+Q13131+Q9UGI9); test: (§1) Activation of recombinant human AMPK by FRET assay
[2] = biological target: AMP-activated protein kinase, AMPK; test: as §1

COc1cccc(-c2ccc(-c3cc4c(O)c(-n5cccn5)c(=O)[nH]c4cc3Cl)cc2)c1
pEC200 [1]: < 5
pEC50 [2]: < 5.5

Cc1nc(-c2c(O)c3cc(-c4ccc(N5CCCCC5)cc4)c(Cl)cc3[nH]c2=O)cs1
pEC200 [1]: < 5
pEC50 [2]: < 5.5

Cc1nc(-c2c(O)c3cc(-c4ccc(N(C)C)cc4)c(Cl)cc3[nH]c2=O)c(C)s1
pEC200 [1]: < 5
pEC50 [2]: < 5.5

Cc1ccn(-c2c(O)c3cc(-c4ccc(N5CCCC5)cc4)c(Cl)cc3[nH]c2=O)n1
pEC200 [1]: < 5
pEC50 [2]: < 5.5

Cc1cc(-c2c(O)c3cc(-c4ccc(N(C)C)cc4)c(Cl)cc3[nH]c2=O)no1
pEC200 [1]: < 5
pEC50 [2]: < 5.5
